{
  "source": "patent US12227521B2",
  "about": "“CGRP antagonist compounds” (Nxera Pharma UK Limited, priority 2019, dated 2025)",
  "biological_target": "T1, human CGRP receptor (Homo sapiens, UniProt O60894+Q16602)",
  "T1 construct": "SK-N-MC endogenously expressing the human CGRP receptor; endogenous in cells; host or cells: SK-N-MC human neuroblastoma cells",
  "T1 sequence (Q16602 23-461)": "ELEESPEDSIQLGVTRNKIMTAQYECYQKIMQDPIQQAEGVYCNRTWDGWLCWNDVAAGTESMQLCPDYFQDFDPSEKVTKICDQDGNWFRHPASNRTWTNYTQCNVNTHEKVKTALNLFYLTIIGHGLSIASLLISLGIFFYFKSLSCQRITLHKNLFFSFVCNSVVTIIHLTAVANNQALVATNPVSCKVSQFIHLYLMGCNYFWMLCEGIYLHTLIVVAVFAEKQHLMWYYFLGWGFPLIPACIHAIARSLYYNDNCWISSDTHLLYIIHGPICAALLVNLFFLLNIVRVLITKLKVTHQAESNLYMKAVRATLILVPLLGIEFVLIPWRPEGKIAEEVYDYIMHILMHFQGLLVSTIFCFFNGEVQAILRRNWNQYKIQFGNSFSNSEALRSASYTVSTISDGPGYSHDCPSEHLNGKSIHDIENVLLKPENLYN",
  "T1 sequence (O60894 27-148)": "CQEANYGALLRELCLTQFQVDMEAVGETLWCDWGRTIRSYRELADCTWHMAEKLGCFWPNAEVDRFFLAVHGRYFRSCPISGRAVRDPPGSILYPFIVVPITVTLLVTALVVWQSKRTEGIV",
  "test": "cAMP functional assay (HTRF cAMP dynamic-2) in SK-N-MC cells",
  "assay_type": "cell-based",
  "conditions": "SK-N-MC cells endogenously expressing human CGRP receptor; challenge with EC80 human CGRP (0.3 nM); functional pKb converted from pIC50 by modified Cheng-Prussoff equation",
  "protocol": "cAMP production following receptor activation was determined using the Homogeneous Time-Resolved Fluorescence (HTRF) cAMP dynamic-2 assay (Cisbio, France). The human neuroblastoma cell line SK-N-MC endogenously expressing the human CGRP receptor was seeded at a density of 12,500 cells/well in solid walled 96 well half area plates (Costar, Catalog Number 3688, Corning Life Sciences, Germany). After 16 h incubation at 37° C. media was removed and cells were incubated at 37° C. for 30 min in serum free media containing 500 μM IBMX (Tocris, Abingdon, UK, Catalog Number 2845) and increasing concentrations of test antagonist. Following this cells were challenged with an EC80 concentration of human CGRP (0.3 nM) for a further 30 m at 37°) and then cAMP production was determined as manufacturer's instructions before plates were read on a PheraStar fluorescence plate reader (BMG LabTech, Germany). IC50 values were derived from the inhibition curve. The pIC50 values (where pIC50=−log10 IC50) were converted to a functional pKb value using a modified Cheng-Prussoff equation where Kd=agonist EC50 and L hot=agonist challenge concentration. The pKb values of certain compounds of the invention are detailed in Table 5.",
  "data": [
    {"smiles": "C[C@@H]1[C@H](c2c(F)ccc(F)c2F)C[C@@H]2NC(=O)c3cnc4c(c3)C[C@@]3(C4)C(=O)Nc4ncc(cc43)/C=C/COCCOCCN1C2=O", "note": "(single isomer, unassigned) [1-1 Isomer 1]", "values": [
      {"measurement": "Kb", "value": 6.31, "unit": "pM"}
    ]}
  ]
}
